The results in this text go back to patent US8071810B2, “C5a receptor antagonists” (Jerini AG, priority 2005, dated 2011).

Molecules are shown by their SMILES. pIC50: −log10 of the molar value. A value given as a limit tells only on which side of the number the result lay.

In the test the target is T1, human C5a receptor (CD88) (Homo sapiens, UniProt P21730).
T1 construct: expressed in transfected cells; host or cells: rat basophilic leukemia (RBL) cells, stably transfected
T1 sequence (P21730 1-350): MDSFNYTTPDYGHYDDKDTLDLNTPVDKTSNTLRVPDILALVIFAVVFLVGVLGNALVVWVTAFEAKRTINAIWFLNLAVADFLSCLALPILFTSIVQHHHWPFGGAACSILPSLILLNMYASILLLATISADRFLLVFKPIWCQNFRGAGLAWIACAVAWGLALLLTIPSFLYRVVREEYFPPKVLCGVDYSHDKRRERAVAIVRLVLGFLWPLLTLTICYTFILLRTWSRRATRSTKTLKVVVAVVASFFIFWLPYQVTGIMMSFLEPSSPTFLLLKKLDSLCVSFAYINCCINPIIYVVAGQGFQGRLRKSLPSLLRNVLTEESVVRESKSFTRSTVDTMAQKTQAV
As to the kind of experiment: C5a induced enzyme (glucosaminidase) release assay in RBL cells expressing the human C5a receptor (Example 28). It counts as cell-based. The settings on record: inhibition of C5a induced enzyme release, RBL cells with human C5aR; read-out: Activity-range (antagonistic activity, IC50 enzyme release). In short, it runs like this: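 Rat basophilic leukemia (RBL) cells expressing human C5a receptor, at 2×10^6 cells/ml, primed with cytochalasin B, then incubated with test compound 10 min at 37 °C.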
The term pIC50 denotes the negative decadic logarithm of the IC50, by convention in mol/L. For `CCc1ccc(N(C(=O)Nc2c(C(C)(C)C)ccc(N)c2C)[C@@H](C)c2ccc(Cl)cc2)cc1` [compound 111, (S)-3-(3-amino-6-tert-butyl-2-methyl-phenyl)-1-[1-(4-chloro-phenyl)-ethyl]-1-(4-ethyl-phenyl)-urea], the pIC50 is 5.30 to 6.70.

On to `CCc1ccc(N(C(=O)Nc2c(CC)c(N)cc(Cl)c2CC)C(C[N+](=O)[O-])c2ccccc2)cc1` (stereo not shown) [compound 112, 3-(3-amino-5-chloro-2,6-diethyl-phenyl)-1-(4-ethyl-phenyl)-1-(2-nitro-1-phenyl-ethyl)-urea], for which the pIC50 was 5.30 to 6.70. Regarding `CCc1ccc(N(Cc2ccc(C#N)cc2)C(=O)Nc2c(CC)c(N)cc(Cl)c2CC)cc1` [compound 113, 3-(3-amino-5-chloro-2,6-diethyl-phenyl)-1-(4-cyano-benzyl)-1-(4-ethyl-phenyl)-urea], the pIC50 was 5.30 to 6.70. The result for `CCc1c(N)cc(Cl)c(CC)c1NC(=O)N(Cc1ccc(Cl)cc1)c1ccc(OC)c(OC)c1` [compound 114, 3-(3-amino-5-chloro-2,6-diethyl-phenyl)-1-(4-chloro-benzyl)-1-(3,4-dimethoxy-phenyl)-urea] reads 5.30 to 6.70; that for `CCc1c(N)cc(Cl)c(CC)c1NC(=O)N(Cc1ccc(Cl)cc1)c1ccc(OC)c2ccccc12` [compound 115, 3-(3-amino-5-chloro-2,6-diethyl-phenyl)-1-(4-chloro-benzyl)-1-(4-methoxy-naphthaline-1-yl)-urea], 6.70 to 7.22. As to `CCc1ccc(N(Cc2ccc(N)cc2)C(=O)Nc2c(CC)c(N)cc(Cl)c2CC)cc1` [compound 116, 1-(4-amino-benzyl)-3-(3-amino-5-chloro-2,6-diethyl-phenyl)-1-(4-ethyl-phenyl)-urea], the pIC50 is 5.30 to 6.70.

For `CCc1c(N)cc(Cl)c(CC)c1NC(=O)N(Cc1ccc(Cl)cc1)c1ccc(OC(F)F)cc1` [compound 117, 3-(3-amino-5-chloro-2,6-diethyl-phenyl)-1-(4-chloro-benzyl)-1-(4-difluoromethoxy-phenyl)-urea], the pIC50 was 5.30 to 6.70.

Regarding `CCc1ccc(N(Cc2ccc3c(c2)ncn3C)C(=O)Nc2c(CC)c(N)cc(Cl)c2CC)cc1` [compound 118, 3-(3-amino-5-chloro-2,6-diethyl-phenyl)-1-(4-ethyl-phenyl)-1-(1-methyl-1H-benzoimidazol-5-ylmethyl)-urea], the pIC50 is 5.30 to 6.70. In the case of `CCc1ccc(N)c(CC)c1NC(=O)N(Cc1ccc(Cl)cc1)c1ccc(NC)cc1` [compound 119, 3-(3-amino-2,6-diethyl-phenyl)-1-(4-chloro-benzyl)-1-(4-methylamino-phenyl)-urea], the negative-log IC50 (pIC50) is 6.70 to 7.22. The result for `CCc1ccc(N(Cc2cnc(N(C)C)nc2)C(=O)Nc2c(CC)c(N)cc(Cl)c2CC)cc1` [compound 121, 3-(3-amino-5-chloro-2,6-diethyl-phenyl)-1-(2-dimethylamino-pyrimidin-e5-ylmethyl)-1-(4-ethyl-phenyl)-urea] reads 5.30 to 6.70; that for `CCc1ccc(N(C(=O)Nc2c(CC)c(N)cc(Cl)c2CC)C(C)c2ccc(C)nc2)cc1` (stereo not shown) [compound 123, 3-(3-amino-5-chloro-2,6-diethyl-phenyl)-1-(4-ethyl-phenyl)-1-[1-(6-methyl-pyridin-3-yl)-ethyl]-urea], 6.70 to 7.22; that for `CCc1c(N)cc(Cl)c(CC)c1NC(=O)N(Cc1ccc(C)nc1)c1ccc(OC)cc1F` [compound 124, 3-(3-amino-5-chloro-2,6-diethyl-phenyl)-1-(2-fluoro-4-methoxy-phenyl)-1-(6-methyl-pyridin-3-ylmethyl)-urea], 5.30 to 6.70. Then `CCc1c(N)cc(Cl)c(CC)c1NC(=O)N(Cc1ccc(C)nc1)c1ccc(CC(F)(F)F)cc1` [compound 126, 3-(3-amino-5-chloro-2,6-diethyl-phenyl)-1-(6-methyl-pyridin-3-ylmethyl)-1-[4-(2,2,2-trifluoro-ethyl)-phenyl]-urea], with 6.70 to 7.22; and `CCc1c(N)cc(Cl)c(CC)c1NC(=O)N(Cc1ccc(Cl)cc1)c1ccc(N(C)C)cc1` [compound 127, 3-(3-amino-5-chloro-2,6-diethyl-phenyl)-1-(4-chloro-benzyl)-1-(4-dimethylamino-phenyl)-urea], with 5.30 to 6.70; and `CCc1c(N)cc(Cl)c(CC)c1NC(=O)N(Cc1ccccc1)c1ccc(N(C)C)cc1` [compound 128, 3-(3-amino-5-chloro-2,6-diethyl-phenyl)-1-benzyl-1-(4-dimethylamino-phenyl)-urea], with 5.30 to 6.70. On to `CCc1c(N)cc(Cl)c(CC)c1NC(=O)N(Cc1ccccc1)c1ccc(NC)cc1` [compound 129, 3-(3-amino-5-chloro-2,6-diethyl-phenyl)-1-benzyl-1-(4-methylamino-phenyl)-urea], for which the pIC50 is 6.70 to 7.22.

`CCc1c(N)cc(Cl)c(CC)c1NC(=O)N(Cc1ccc(Cl)cc1)c1ccc(OC)c2nc(C)c(C)nc12` [compound 130, 3-(3-amino-5-chloro-2,6-diethyl-phenyl)-1-(4-chloro-benzyl)-1-(8-methoxy-2,3-dimethyl-chinoxalin-5-yl)-urea]: the pIC50 was 5.30 to 6.70.

As for `CCc1c(Cl)cc(N=O)c(CC)c1NC(=O)N(c1ccc(NC)cc1)[C@@H](C)c1ccc(Cl)cc1` [compound 133, (S)-3-(3-chloro-2,6-diethyl-5-nitroso-phenyl)-1-[1-(4-chloro-phenyl)-ethyl]-1-(4-methylamino-phenyl)-urea], the pIC50 was more than 7.22. Then `COc1ccc(CN(C(=O)Nc2c(C(C)C)cccc2C(C)C)c2ccc(C(C)C)cc2)cc1` [compound 134, 3-(2,6-diisopropyl-phenyl)-1-(4-isopropyl-phenyl)-1-(4-methoxy-benzyl)-urea], with 5.30 to 6.70; and `CCNc1ccc(N(Cc2ccc(Cl)cc2)C(=O)Nc2c(CC)c(N)cc(Cl)c2CC)cc1` [compound 136, 3-(3-amino-5-chloro-2,6-diethyl-phenyl)-1-(4-chloro-benzyl)-1-(4-ethylamino-phenyl)-urea], with more than 7.22. Then `CCc1c(N)cc(Cl)c(CC)c1NC(=O)N(c1ccc(NC)cc1)C(C)c1ccc2c(c1)ncn2C` (stereo not shown) [compound 138, 3-(3-amino-5-chloro-2,6-diethyl-phenyl)-1-(4-methylamino-phenyl)-1-[1-(1-methyl-1H-benzoimidazol-5-yl)-ethyl]-urea], with 6.70 to 7.22.

On to `CCc1c(N)cc(Cl)c(CC)c1NC(=O)N(Cc1ccc(Cl)cc1)c1ccc(NC)c2ccccc12` [compound 139, 3-(3-amino-5-chloro-2,6-diethyl-phenyl)-1-(4-chloro-benzyl)-1-(4-methylamino-naphthalin-1-yl)-urea], for which the pIC50 is 5.30 to 6.70.

On to `CCc1c(N)cc(Cl)c(CC)c1NC(=O)N(Cc1ccc(Cl)cc1)c1ccc(NC(C)=O)cc1` [compound 140, N-{4-[3-(3-amino-5-chloro-2,6-diethyl-phenyl)-1-(4-chloro-benzyl)-ureido]-phenyl}-acetamide], for which the pIC50 was 5.30 to 6.70. As to `CCc1c(N)cc(Cl)c(CC)c1NC(=O)N(c1ccc2[nH]ccc2c1)[C@@H](C)c1ccc(Cl)cc1` [compound 141, (S)-3-(3-amino-5-chloro-2,6-diethyl-phenyl)-1-[1-(4-chloro-phenyl)-ethyl]-1-(1H-indol-5-yl)-urea], the negative-log IC50 (pIC50) was more than 7.22. The result for `CCNc1ccc(CC)c(NC(=O)N(Cc2ccc(OC)cc2)c2ccc(C(C)C)cc2)c1CC` [compound 142, 3-(2,6-diethyl-3-ethylamino-phenyl)-1-(4-isopropyl-phenyl)-1-(4-methoxy-benzyl)-urea] reads less than 5.30.
